Measured values: ChEMBL document CHEMBL1152321, “Recent advances in the chemistry and biology of new generation taxoids” (J Nat Prod, 2009)

Columns and labels:
[1] = Resistance factor, ratio of IC50 for human LCC-6 cells expressing P-glycoprotein to IC50 for P-glycoprotein deficient wild type human LCC-6 cells; assay type: functional; design: reference not given here
MCF7 [2] = test: Resistance factor, ratio of IC50 for P-glycoprotein deficient wild type human MCF7 cells to IC50 for multidrug-resistant human NCI/ADR cells; assay type: functional
[3] = Cytotoxicity against P-glycoprotein deficient wild type human LCC-6 cells after 72 hrs; assay type: functional, cell-based; conditions: LCC-6, 72 h
MCF7 [4] = test: Cytotoxicity against P-glycoprotein deficient wild type human MCF7 cells after 72 hrs; assay type: functional, cell-based; conditions: MCF7, 72 h
HT-29 = test: Cytotoxicity against human HT-29 cells after 72 hrs; assay type: functional, cell-based; conditions: HT-29, 72 h
NCI-H460 = test: Cytotoxicity against human H460 cells after 72 hrs; assay type: functional, cell-based; conditions: NCI-H460, 72 h
MCF7 [5] = test: Cytotoxicity against human MCF7 cells expressing P-glycoprotein after 72 hrs; assay type: functional, cell-based; conditions: MCF7, 72 h
[6] = Cytotoxicity against human LCC-6 cells expressing P-glycoprotein after 72 hrs; assay type: functional, cell-based; conditions: LCC-6, 72 h
MCF7 [7] = test: Resistance factor, ratio of IC50 for human MCF7 cells expressing P-glycoprotein to IC50 for P-glycoprotein deficient wild type human MCF7 cells; assay type: functional

Row | SMILES | Ratio [1] | Ratio (MCF7 [2]) | IC50 [3] [nM] | IC50 (MCF7 [4]) [nM] | IC50 (HT-29) [nM] | IC50 (NCI-H460) [nM] | IC50 (MCF7 [5]) [nM] | IC50 [6] [nM] | Ratio (MCF7 [7])
1 | CCC(=O)O[C@H]1C(=O)[C@@]2(C)[C@H]([C@H](OC(=O)c3ccccc3)[C@]3(O)C[C@H](OC(=O)[C@H](O)[C@H](CC(C)C)NC(=O)C4CCCCC4)C(C)=C1C3(C)C)[C@]1(OC(C)=O)CO[C@@H]1C[C@@H]2O | 5.5 | 13 | 5.8 | – | – | – | – | – | –
2 | COC(=O)O[C@H]1C(=O)[C@@]2(C)[C@H]([C@H](OC(=O)c3cccc(OC)c3)[C@]3(O)C[C@H](OC(=O)[C@H](O)[C@H](C=C(C)C)NC(=O)OC(C)(C)C)C(C)=C1C3(C)C)[C@]1(OC(C)=O)CO[C@@H]1C[C@@H]2O | 2.7 | 3.5 | 0.6 | – | – | – | – | – | –
3 | CCC(=O)O[C@H]1C(=O)[C@@]2(C)[C@H]([C@H](OC(=O)c3ccccc3)[C@]3(O)C[C@H](OC(=O)[C@H](O)[C@H](C=C(C)C)NC(=O)C4=CCCC4)C(C)=C1C3(C)C)[C@]1(OC(C)=O)CO[C@@H]1C[C@@H]2O | 12 | 15 | 1.2 | – | – | – | – | – | –
4 | C=CC[C@H](NC(=O)OC(C)(C)C)[C@@H](O)C(=O)O[C@H]1C[C@@]2(O)[C@@H](OC(=O)c3cccc(OC)c3)[C@@H]3[C@]4(OC(C)=O)CO[C@@H]4C[C@H](O)[C@@]3(C)C(=O)[C@H](OC(=O)CC)C(=C1C)C2(C)C | 7 | 10.9 | 1.2 | – | – | – | – | – | –
5 | CCC(=O)O[C@H]1C(=O)[C@@]2(C)[C@H]([C@H](OC(=O)c3cccc(OC)c3)[C@]3(O)C[C@H](OC(=O)[C@H](O)[C@H](C=C(C)C)NC(=O)C4CCCC4)C(C)=C1C3(C)C)[C@]1(OC(C)=O)CO[C@@H]1C[C@@H]2O | 10 | 32 | 1.1 | – | – | – | – | – | –
6 | CCC(=O)O[C@H]1C(=O)[C@@]2(C)[C@H]([C@H](OC(=O)c3ccccc3)[C@]3(O)C[C@H](OC(=O)[C@H](O)[C@H](C=C(C)C)NC(=O)OC(C)(C)C)C(C)=C1C3(C)C)[C@]1(OC(C)=O)CO[C@@H]1C[C@@H]2O | – | 22 | – | – | – | – | – | – | –
7 | CCC(=O)O[C@H]1C(=O)[C@@]2(C)[C@H]([C@H](OC(=O)c3cccc(OC)c3)[C@]3(O)C[C@H](OC(=O)[C@H](O)[C@H](CC(C)C)NC(=O)C4CC4)C(C)=C1C3(C)C)[C@]1(OC(C)=O)CO[C@@H]1C[C@@H]2O | 22 | 30 | 0.6 | – | – | – | – | – | –
8 | CCC(=O)O[C@H]1C(=O)[C@@]2(C)[C@H]([C@H](OC(=O)c3cccc(Cl)c3)[C@]3(O)C[C@H](OC(=O)[C@H](O)[C@@H](NC(=O)OC(C)(C)C)C(F)F)C(C)=C1C3(C)C)[C@]1(OC(C)=O)CO[C@@H]1C[C@@H]2O | 9.1 | – | 0.52 | 0.44 | 0.43 | 0.3 | 5.2 | 4.71 | 12
9 | CCC(=O)O[C@H]1C(=O)[C@@]2(C)[C@H]([C@H](OC(=O)c3cccc(N=[N+]=[N-])c3)[C@]3(O)C[C@H](OC(=O)[C@H](O)[C@@H](NC(=O)OC(C)(C)C)C(F)(F)F)C(C)=C1C3(C)C)[C@]1(OC(C)=O)CO[C@@H]1C[C@@H]2O | 2.3 | – | 1.09 | 0.38 | 0.4 | 0.2 | 1.61 | 2.56 | 4.2
10 | CC(=O)O[C@@]12CO[C@@H]1C[C@H](O)[C@@]1(C)C(=O)[C@H](OC(=O)N(C)C)C3=C(C)[C@@H](OC(=O)[C@H](O)[C@@H](NC(=O)OC(C)(C)C)C(F)(F)F)C[C@@](O)([C@@H](OC(=O)c4cccc(F)c4)[C@H]21)C3(C)C | 17 | – | 0.32 | 0.32 | 0.76 | 0.5 | 2.64 | 5.57 | 8.3
11 | COC(=O)O[C@H]1C(=O)[C@@]2(C)[C@H]([C@H](OC(=O)c3cccc(F)c3)[C@]3(O)C[C@H](OC(=O)[C@H](O)[C@@H](NC(=O)OC(C)(C)C)C(F)F)C(C)=C1C3(C)C)[C@]1(OC(C)=O)CO[C@@H]1C[C@@H]2O | 15 | – | 0.86 | 0.59 | 0.43 | 0.3 | 11.4 | 12.6 | 19
12 | CC(=O)O[C@@]12CO[C@@H]1C[C@H](O)[C@@]1(C)C(=O)[C@H](OC(=O)N(C)C)C3=C(C)[C@@H](OC(=O)[C@H](O)[C@@H](NC(=O)OC(C)(C)C)C(F)F)C[C@@](O)([C@@H](OC(=O)c4cccc(N=[N+]=[N-])c4)[C@H]21)C3(C)C | 5.8 | – | 0.29 | 0.37 | 0.4 | 0.52 | 1.44 | 1.69 | 3.9
13 | CCC(=O)O[C@H]1C(=O)[C@@]2(C)[C@H]([C@H](OC(=O)c3ccccc3)[C@]3(O)C[C@H](OC(=O)[C@H](O)[C@H](CC(C)C)NC(=O)OC(C)(C)C)C(C)=C1C3(C)C)[C@]1(OC(C)=O)CO[C@@H]1C[C@@H]2O | – | 15 | – | – | – | – | – | – | –
14 | CC(=O)O[C@H]1C(=O)[C@@]2(C)[C@H]([C@H](OC(=O)c3cccc(F)c3)[C@]3(O)C[C@H](OC(=O)[C@H](O)[C@@H](NC(=O)OC(C)(C)C)C(F)(F)F)C(C)=C1C3(C)C)[C@]1(OC(C)=O)CO[C@@H]1C[C@@H]2O | 16 | – | 0.38 | 0.45 | 1.11 | 0.49 | 5.58 | 5.93 | 13
15 | CC(=O)O[C@@]12CO[C@@H]1C[C@H](O)[C@@]1(C)C(=O)[C@H](OC(=O)N(C)C)C3=C(C)[C@@H](OC(=O)[C@H](O)[C@@H](NC(=O)OC(C)(C)C)C(F)(F)F)C[C@@](O)([C@@H](OC(=O)c4cccc(Cl)c4)[C@H]21)C3(C)C | 9.4 | – | 0.27 | 0.12 | 0.45 | 0.42 | 1.02 | 2.55 | 8.5
16 | COc1cccc(C(=O)O[C@H]2[C@@H]3[C@]4(OC(C)=O)CO[C@@H]4C[C@H](O)[C@@]3(C)C(=O)[C@H](OC(C)=O)C3=C(C)[C@@H](OC(=O)[C@H](O)[C@@H](NC(=O)OC(C)(C)C)C(F)(F)F)C[C@]2(O)C3(C)C)c1 | 12 | – | 0.33 | 0.32 | 0.69 | 0.38 | 8.8 | 3.99 | 28
17 | CCC(=O)O[C@H]1C(=O)[C@@]2(C)[C@H]([C@H](OC(=O)c3cccc(F)c3)[C@]3(O)C[C@H](OC(=O)[C@H](O)[C@@H](NC(=O)OC(C)(C)C)C(F)F)C(C)=C1C3(C)C)[C@]1(OC(C)=O)CO[C@@H]1C[C@@H]2O | 3.5 | – | 0.88 | 0.53 | 0.86 | 0.41 | 7.24 | 4.63 | 14
18 | CCC(=O)O[C@H]1C(=O)[C@@]2(C)[C@H]([C@H](OC(=O)c3cccc(OC)c3)[C@]3(O)C[C@H](OC(=O)[C@H](O)[C@@H](NC(=O)OC(C)(C)C)C(F)(F)F)C(C)=C1C3(C)C)[C@]1(OC(C)=O)CO[C@@H]1C[C@@H]2O | 9 | – | 0.45 | 0.19 | 0.54 | 0.41 | 2.16 | 4.24 | 11
